The results in this text go back to ChEMBL document CHEMBL1159120, “2,4-Diamino-5-methyl-6-substituted arylthio-furo[2,3-d]pyrimidines as novel classical and nonclassical antifolates as potential dual thymidylate synthase and dihydrofolate reductase inhibitors” (Bioorg Med Chem, 2010).

Assay [1] addresses T1, Dihydrofolate reductase (Rattus norvegicus, UniProt Q920D2).
T1 sequence (Q920D2 whole entry): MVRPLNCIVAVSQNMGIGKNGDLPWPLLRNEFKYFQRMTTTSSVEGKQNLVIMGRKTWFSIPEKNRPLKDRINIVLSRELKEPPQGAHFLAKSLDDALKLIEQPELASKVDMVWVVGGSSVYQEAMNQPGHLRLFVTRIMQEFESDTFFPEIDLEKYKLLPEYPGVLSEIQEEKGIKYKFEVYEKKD
Description: Inhibition of rat liver DHFR at 37 degC by spectrophotometry

Assay [2] deals with T2, Dihydrofolate reductase (Pneumocystis carinii, UniProt P16184).
T2 sequence (P16184 whole entry): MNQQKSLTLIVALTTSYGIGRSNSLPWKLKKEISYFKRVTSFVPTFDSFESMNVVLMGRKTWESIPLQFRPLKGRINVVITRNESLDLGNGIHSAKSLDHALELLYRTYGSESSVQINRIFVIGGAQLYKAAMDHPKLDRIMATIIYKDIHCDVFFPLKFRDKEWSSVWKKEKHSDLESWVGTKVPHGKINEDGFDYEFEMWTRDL
Description: Inhibition of Pneumocystis carinii DHFR at 37 degC by spectrophotometry

In assay [3] the target is T3, Bifunctional dihydrofolate reductase-thymidylate synthase (Toxoplasma gondii, UniProt Q07422).
T3 sequence (Q07422 whole entry): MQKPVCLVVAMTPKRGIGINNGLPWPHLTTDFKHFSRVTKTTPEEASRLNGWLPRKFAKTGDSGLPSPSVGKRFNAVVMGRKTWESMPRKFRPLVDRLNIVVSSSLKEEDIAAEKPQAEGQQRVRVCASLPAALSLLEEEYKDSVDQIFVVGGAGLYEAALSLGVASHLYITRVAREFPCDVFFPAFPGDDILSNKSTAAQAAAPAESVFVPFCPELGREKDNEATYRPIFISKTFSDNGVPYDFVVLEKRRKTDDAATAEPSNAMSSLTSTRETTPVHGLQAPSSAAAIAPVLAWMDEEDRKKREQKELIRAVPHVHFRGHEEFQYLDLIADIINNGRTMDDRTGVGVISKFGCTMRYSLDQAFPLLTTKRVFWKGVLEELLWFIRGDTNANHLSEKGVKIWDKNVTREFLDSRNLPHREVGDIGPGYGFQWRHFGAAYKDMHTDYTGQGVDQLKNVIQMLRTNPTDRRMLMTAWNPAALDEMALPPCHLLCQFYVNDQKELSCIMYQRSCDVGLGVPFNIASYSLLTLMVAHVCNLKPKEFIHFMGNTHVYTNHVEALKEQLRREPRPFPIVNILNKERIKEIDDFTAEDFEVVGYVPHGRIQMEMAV
Description: Inhibition of Toxoplasma gondii DHFR at 37 degC by spectrophotometry

Assay [4] concerns the target T4, Dihydrofolate reductase (Mycobacterium avium, UniProt O30463).
T4 sequence (O30463 whole entry): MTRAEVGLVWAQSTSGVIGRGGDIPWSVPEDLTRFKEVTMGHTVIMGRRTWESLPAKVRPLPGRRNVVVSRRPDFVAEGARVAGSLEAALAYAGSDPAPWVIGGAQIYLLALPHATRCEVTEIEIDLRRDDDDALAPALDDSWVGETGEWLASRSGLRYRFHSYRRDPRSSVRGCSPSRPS
Description: Inhibition of Mycobacterium avium DHFR at 37 degC by spectrophotometry

Assay [5] addresses T5, Dihydrofolate reductase (Mycobacterium avium) (UniProt O30463).
T5 sequence (whole entry): T4 sequence (O30463 whole entry)
In words: Inhibition of Mycobacterium avium DHFR at 31 uM under 37 degC by spectrophotometry.

Assay [6] deals with T6, Dihydrofolate reductase (Pneumocystis carinii) (UniProt P16184).
T6 sequence (whole entry): T2 sequence (P16184 whole entry)
The experiment in a line: Inhibition of Pneumocystis carinii DHFR at 31 uM under 37 degC by spectrophotometry.

A further assay deals with Thymidylate synthase (Homo sapiens, UniProt P04818).
Thymidylate synthase, sequence (P04818 whole entry): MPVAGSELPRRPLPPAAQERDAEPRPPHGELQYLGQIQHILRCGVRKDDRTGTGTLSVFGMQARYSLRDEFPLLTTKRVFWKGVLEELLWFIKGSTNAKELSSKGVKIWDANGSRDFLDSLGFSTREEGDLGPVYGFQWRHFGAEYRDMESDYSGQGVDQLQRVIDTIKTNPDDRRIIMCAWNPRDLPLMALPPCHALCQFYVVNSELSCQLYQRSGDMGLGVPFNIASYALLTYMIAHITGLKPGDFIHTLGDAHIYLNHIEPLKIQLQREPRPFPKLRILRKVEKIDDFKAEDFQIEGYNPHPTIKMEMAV
Assay [7] has as its target T5, Dihydrofolate reductase (Mycobacterium avium). The conditions noted are these: 196 uM.
Assay [8] deals with T6, Dihydrofolate reductase (Pneumocystis carinii). The experiment in a line: Inhibition of Pneumocystis carinii DHFR at 20 uM under 37 degC by spectrophotometry.
Assay [9] deals with T7, Dihydrofolate reductase (Rattus norvegicus) (UniProt Q920D2).
T7 sequence (whole entry): T1 sequence (Q920D2 whole entry)
In words: Inhibition of rat liver DHFR at 196 uM under 37 degC by spectrophotometry.

Assay [10] concerns the target T8, Dihydrofolate reductase (Escherichia coli, UniProt P0ABQ4).
T8 sequence (P0ABQ4 whole entry): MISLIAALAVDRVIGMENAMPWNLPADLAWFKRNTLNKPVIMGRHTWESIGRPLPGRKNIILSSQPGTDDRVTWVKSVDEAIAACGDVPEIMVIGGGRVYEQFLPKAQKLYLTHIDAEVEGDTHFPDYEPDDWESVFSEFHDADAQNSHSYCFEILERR
Description: Inhibition of Escherichia coli DHFR at 30 degC under pH 7.4 by spectrophotometry

For assay [11], the target named is T3, Bifunctional dihydrofolate reductase-thymidylate synthase. The source holds these as a separate data set.
Assay [12] addresses T9, Dihydrofolate reductase (Homo sapiens, UniProt P00374).
T9 sequence (P00374 whole entry): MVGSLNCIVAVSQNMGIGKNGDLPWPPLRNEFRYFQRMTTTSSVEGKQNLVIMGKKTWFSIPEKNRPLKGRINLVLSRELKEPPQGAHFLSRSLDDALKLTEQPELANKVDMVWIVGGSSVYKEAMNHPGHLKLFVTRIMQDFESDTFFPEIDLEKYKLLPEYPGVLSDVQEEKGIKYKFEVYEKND
Description: Inhibition of human DHFR at 30 degC under pH 7.4 by spectrophotometry

Assay [13] addresses T3, Bifunctional dihydrofolate reductase-thymidylate synthase. The source holds these as a separate data set.
Description: Inhibition of Toxoplasma gondii DHFR at 30 degC under pH 7.4 by spectrophotometry

The IC50 is the concentration that inhibits the measured activity by half. A high value points to lower potency. Take `Cc1c(Sc2c(Cl)cccc2Cl)oc2nc(N)nc(N)c12`: the half-inhibitory concentration (IC50) against Dihydrofolate reductase [1] is 14.4 µM; against Dihydrofolate reductase [2], 60 µM.

As to `Cc1c(Sc2ccc3ccccc3c2)oc2nc(N)nc(N)c12`, the IC50 (on Dihydrofolate reductase [1]; against Dihydrofolate reductase [2]; in assay [3]) was greater than 12 µM in each case.

On to `COc1ccc(Sc2oc3nc(N)nc(N)c3c2C)cc1`, for which the IC50 against Dihydrofolate reductase [1] came out at 61.9 µM; at Dihydrofolate reductase [4], 25.5 µM; against Dihydrofolate reductase [2], 34.7 µM.

The inhibition is how much of the control response was suppressed. Read a low inhibition as a weak effect. For `Cc1c(Sc2c(F)c(F)c(C(F)(F)F)c(F)c2F)oc2nc(N)nc(N)c12`, the inhibition was found to be 8% in assay [5] and 39% in assay [6]. In addition, the values for the IC50 against Dihydrofolate reductase [1] and against Dihydrofolate reductase [2] were 39.1 µM and greater than 31 µM, respectively.

On to `COc1cccc(Sc2oc3nc(N)nc(N)c3c2C)c1`, for which the IC50 turned out to be 51.3 µM on Dihydrofolate reductase [1], 28.4 µM against Dihydrofolate reductase [4] and 25.2 µM on Dihydrofolate reductase [2].

Consider `COc1ccc(OC)c(Sc2oc3nc(N)nc(N)c3c2C)c1`, for which the figures for the IC50 at Dihydrofolate reductase [1], against Dihydrofolate reductase [4] and at Dihydrofolate reductase [2] were 42.2 µM, 61.9 µM and 24 µM, respectively.

For `Cc1c(Sc2cccc3ccccc23)oc2nc(N)nc(N)c12`, the half-inhibitory concentration (IC50) at Dihydrofolate reductase [1] is greater than 83 µM; against Dihydrofolate reductase [2], 8.6 µM; in [3], greater than 83 µM.

With `CN(Cc1coc2nc(N)nc(N)c12)c1ccc(C(=O)N[C@@H](CCC(=O)O)C(=O)O)cc1` [FURO[2,3D]PYRIMIDINE ANTIFOLATE], on Thymidylate synthase, the IC50 is greater than 200 µM.

As for `COc1ccc(Sc2oc3nc(N)nc(N)c3c2C)cc1OC`, the IC50 on Dihydrofolate reductase [1] worked out at 66.6 µM; against Dihydrofolate reductase [4], 16.3 µM; against Dihydrofolate reductase [2] it was 36.4 µM.

For `Cc1cccc(C)c1Sc1oc2nc(N)nc(N)c2c1C`, the values for the inhibition in assay [7], in assay [8] and in assay [9] were 20%, 27% and 41%, respectively. The results for the IC50 (at Dihydrofolate reductase [1]; on Dihydrofolate reductase [2]; in [3]) were greater than 196 µM, greater than 20 µM and 19.7 µM, respectively.

In the case of `Nc1nc(N)c2c(CNc3ccc(C(=O)N[C@@H](CCC(=O)O)C(=O)O)cc3)coc2n1`, at Thymidylate synthase, the IC50 was greater than 200 µM.

For `COc1ccccc1Sc1oc2nc(N)nc(N)c2c1C`, the values for the IC50 at Dihydrofolate reductase [1], against Dihydrofolate reductase [4] and on Dihydrofolate reductase [2] were 55.6 µM, 23.9 µM and 20.3 µM, respectively.

As to `Cc1cccc(C(C)C)c1Sc1oc2nc(N)nc(N)c2c1C`, the midpoint of inhibition against Dihydrofolate reductase [2], the IC50, lay at 36.5 µM.

At Thymidylate synthase, `Nc1nc(N)c2c(CCc3ccc(C(=O)N[C@@H](CCC(=O)O)C(=O)O)cc3)coc2n1` yielded a half-inhibitory concentration (IC50) greater than 200 µM.

As to `Cc1c(Sc2ccc(C(=O)N[C@@H](CCC(=O)O)C(=O)O)cc2)oc2nc(N)nc(N)c12`, the half-maximal inhibitory concentration (IC50) came to 0.02 µM at Dihydrofolate reductase [10]; 27 µM in assay [11]; 20.5 µM at Dihydrofolate reductase [1]; 4 µM against Dihydrofolate reductase [12]; 0.00973 µM on Dihydrofolate reductase [4]; 0.078 µM at Dihydrofolate reductase [2]. Also, the IC50 in assay [13] was found to be 2.2 µM; in assay [3], 12 µM.
